Data as given in ChEMBL document CHEMBL1201862, “PubChem BioAssay data set” (2004).
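Following 48 hours of exposure in 96-well plates, responses at five concentrations were used to interpolate endpoints linearly. The concentration for 50% growth inhibition is given as GI50.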 Activity calls are given as the source filed them. No stated cut-off is given here; in the data, active = GI50 up to about 1.1 µM and inactive = higher.

Legend:
Experiment in all cases: growth of human tumour cells (NCI), 48 h
NCI-H460 = system: NCI-H460
NCI-H23 = system: NCI-H23
OVCAR-8 = system: OVCAR-8
HCT-116 = system: HCT-116
SNB-75 = system: SNB-75
LOX IMVI = system: LOX IMVI
U-251 = system: U-251
CAKI-1 = system: CAKI-1
EKVX = system: EKVX
UO-31 = system: UO-31
TK-10 = system: TK-10
HCT-15 = system: HCT-15
COLO 205 = system: COLO 205
SK-MEL-28 = system: SK-MEL-28
KM-20L2 = system: KM-20L2
A549 = system: A549
SNB-78 = system: SNB-78
786-0 = system: 786-0
OVCAR-5 = system: OVCAR-5
M14 = system: M14
RXF 631 = system: RXF 631
RPMI-8226 = system: RPMI-8226
UACC-62 = system: UACC-62
SK-OV-3 = system: SK-OV-3
SN12C = system: SN12C
ACHN = system: ACHN
Malme-3M = system: Malme-3M
HCC 2998 = system: HCC 2998
OVCAR-3 = system: OVCAR-3
KM12 = system: KM12
DMS-273 = system: DMS-273
SF-268 = system: SF-268
CCRF-CEM = system: CCRF-CEM
SF-295 = system: SF-295
OVCAR-4 = system: OVCAR-4
M19-MEL = system: M19-MEL
DLD-1 = system: DLD-1
MOLT-4 = system: MOLT-4
HOP-18 = system: HOP-18
SNB-19 = system: SNB-19
HT-29 = system: HT-29
K562 = system: K562
IGROV-1 = system: IGROV-1
SW-620 = system: SW-620
HL-60 = system: HL-60
HOP-62 = system: HOP-62
LXFL 529 = system: LXFL 529
A498 = system: A498
NCI-H522 = system: NCI-H522
DMS-114 = system: DMS-114
UACC-257 = system: UACC-257
NCI-H226 = system: NCI-H226
HOP-92 = system: HOP-92
RXF 393 = system: RXF 393
SR = system: SR

With `Cc1cc(Cc2cc(C)c(NC(=O)C(=O)C3C(=O)NC(=S)NC3=O)c(C(C)C)c2)cc(C(C)C)c1NC(=O)C(=O)C1C(=O)NC(=S)NC1=O` the GI50 (NCI-H460) was > 100 µM (inactive), the GI50 (NCI-H23) was > 100 µM (inactive) and the GI50 (OVCAR-8) was > 100 µM (inactive). For the same compound, the GI50 (HCT-116) was > 100 µM (inactive), the GI50 (SNB-75) was > 100 µM (inactive) and the GI50 (LOX IMVI) was > 100 µM (inactive). The GI50 (U-251) was > 100 µM (inactive), the GI50 (CAKI-1) was > 100 µM (inactive) and the GI50 (EKVX) was > 100 µM (inactive). For the same compound, the GI50 (UO-31) was > 100 µM (inactive), the GI50 (TK-10) was > 100 µM (inactive) and the GI50 (HCT-15) was greater than 100 µM. For the same compound, the GI50 (COLO 205) was > 100 µM (inactive), the GI50 (SK-MEL-28) was > 100 µM (inactive) and the GI50 (KM-20L2) was > 100 µM (inactive). The GI50 (A549) was > 100 µM (inactive), the GI50 (SNB-78) was > 100 µM (inactive) and the GI50 (786-0) was > 100 µM (inactive). The GI50 (OVCAR-5) was > 100 µM (inactive), the GI50 (M14) was > 100 µM (inactive) and the GI50 (RXF 631) was > 100 µM (inactive). The GI50 (RPMI-8226) was > 100 µM (inactive), the GI50 (UACC-62) was > 100 µM (inactive) and the GI50 (SK-OV-3) was > 100 µM (inactive). For the same compound, the GI50 (SN12C) was > 100 µM (inactive), the GI50 (ACHN) was > 100 µM (inactive) and the GI50 (Malme-3M) was > 100 µM (inactive). The GI50 (HCC 2998) was > 100 µM (inactive), the GI50 (OVCAR-3) was > 100 µM (inactive) and the GI50 (KM12) was > 100 µM (inactive). The GI50 (DMS-273) was > 100 µM (inactive), the GI50 (SF-268) was > 100 µM (inactive) and the GI50 (CCRF-CEM) was > 100 µM (inactive). For the same compound, the GI50 (SF-295) was > 100 µM (inactive), the GI50 (OVCAR-4) was > 100 µM (inactive) and the GI50 (M19-MEL) was > 100 µM (inactive). The GI50 (DLD-1) was > 100 µM (inactive), the GI50 (MOLT-4) was > 100 µM (inactive) and the GI50 (HOP-18) was > 100 µM (inactive). The GI50 (SNB-19) was > 100 µM (inactive), the GI50 (HT-29) was > 100 µM (inactive) and the GI50 (K562) was > 100 µM (inactive). For the same compound, the GI50 (IGROV-1) was > 100 µM (inactive), the GI50 (SW-620) was > 100 µM (inactive) and the GI50 (HL-60) was > 100 µM (inactive). For the same compound, the GI50 (HOP-62) was > 100 µM (inactive), the GI50 (LXFL 529) was > 100 µM (inactive) and the GI50 (A498) was > 100 µM (inactive). The GI50 (NCI-H522) was > 100 µM (inactive), the GI50 (DMS-114) was > 100 µM (inactive) and the GI50 (UACC-257) was > 100 µM (inactive). The GI50 (NCI-H226) was > 100 µM (inactive), the GI50 (HOP-92) was > 100 µM (inactive) and the GI50 (RXF 393) was > 100 µM (inactive). For the same compound, the GI50 (SR) was > 100 µM (inactive).
